pIC50, pKd: −log10 of the molar value. Where two headings read alike, the source gives them in different places.
What was measured:
U937 cells = assay: Counter screen: cell viability without the TSQ cocktail (off-target effect); set-up: species or system human
Experimental: (§1) • Cell Line ID: U937 human histiocytic leukemia cell line. • Cell Concentration (cells/well): Final cell density is 20000 cells per well. • Cell growth medium: HT-RPMI medium+7.4% Fetal Bovine Serum (FBS). Cells are cultured in Corning 150 cm^2 tissue culture flasks with vented caps at 37° C./5% CO2. • Incubation: Plates were incubated at 37° C./5% CO2 in a humidified incubator for 48 hours following addition of compounds and death stimuli (TSQ cocktail). • Compound concentration: 36 μM starting concentration, 1:3 dilution, 10 point • DMSO final concentration (% v/v): 0.3%. Compounds in TSQ Cocktail (T: TNF; S: Smac Mimetic; Q: Q-VD-OPh) and their Final Concentrations: • hTNF-Fc (100 ng/ml)—produced by standard procedures as shown in Bossen et al., J. Biol. Chem., 2006, 281(20), 13964-13971. • Compound A (500 nM)—Smac mimetic, Tetralogic and SYNthesis med chem • Q-VD-OPh (10 μM)—MP Biomedicals
(§2) The cellular assay was carried out according to the following steps: • 1. Each well was prepared by sequential addition of: • a. DMSO (control; columns 1-2 and 23-24) or compound in DMSO—addition was performed using acoustic transfer of nL volumes of stock compound to give final test concentrations of 36, 12, 4, 1.3, 0.44, 0.148, 0.049, 0.016, 0.005 and 0.002 μM. All wells were backfilled with DMSO to a final total volume in the well of 100 nL. • b. Following compound/DMSO addition in step (a), 40 μL of cell suspension (5×10^5 cells/mL) was added to provide a final cell concentration of 20,000 cells per well, and • c. Following cell addition in step (b), 10 μL of 5×TSQ cocktail (except to positive controls; columns 1 and 23) was added to each well. • 2. After 48 hours, plate was removed from the 37° C. incubator and equilibrated to room temperature for 45 minutes. • 3.15 μL of room temperature CellTitre-Glo2™ (Promega™) was added to each well. • 4. Shook plates for 2 minutes (˜600 rpm) and incubated at room temperature for 15 minutes to allow signal to stabilise. • 5. Read luminescence readout on a plate reader.
(§3) • Assay involving the TSQ cocktail (T: TNF; S: Smac mimetic; Q: Q-VD-OPh): TSQ treatment ensures that cells specifically undergo necroptotic cell death. TNF activates the TNF receptor, Smac mimetic directs the signal away from proinflammatory signaling and toward the RIPK1/RIPK3-mediated cell death pathways, and Q-VD-OPh ensures that the apoptotic response is blocked leaving only the programmed necrosis response. The compounds' activity (solution in DMSO) tested in this TSQ-induced assay was evaluated by determining the number of viable cells in culture by measuring the amount of ATP present as measured by CelltiterGlo. • Counter screen: In parallel, all compounds were tested for their ability to affect cell viability. The same U937 cells were treated with compound in DMSO without the TSQ cocktail. This counter screen enabled evaluation of off-target effects. In this case, cell viability was measured by CelltiterGlo.

human RIPK3 = human RIPK3 (Homo sapiens (Human), UniProt Q9Y572); assay: KINOMEscan binding assay, human RIPK3; details: Table 21
Chain of human RIPK3 (Q9Y572 whole entry): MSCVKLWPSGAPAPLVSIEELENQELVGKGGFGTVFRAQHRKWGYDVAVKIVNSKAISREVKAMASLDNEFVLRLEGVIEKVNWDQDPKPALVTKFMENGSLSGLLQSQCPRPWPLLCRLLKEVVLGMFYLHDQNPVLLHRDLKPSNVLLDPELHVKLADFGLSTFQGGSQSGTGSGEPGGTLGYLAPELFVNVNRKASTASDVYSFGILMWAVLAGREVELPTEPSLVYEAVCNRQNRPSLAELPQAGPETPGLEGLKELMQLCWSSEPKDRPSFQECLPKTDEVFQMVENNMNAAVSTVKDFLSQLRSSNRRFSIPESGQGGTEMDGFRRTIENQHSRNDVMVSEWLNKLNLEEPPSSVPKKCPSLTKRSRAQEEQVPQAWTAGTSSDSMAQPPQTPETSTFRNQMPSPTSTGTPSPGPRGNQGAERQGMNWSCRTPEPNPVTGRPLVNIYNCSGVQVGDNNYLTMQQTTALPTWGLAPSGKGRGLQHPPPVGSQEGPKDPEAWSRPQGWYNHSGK
Procedure, shortened: (§4)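 In this assay, compounds displace DNA- or phage-tagged kinase from an immobilized ligand, and eluted kinase is quantified by qPCR.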

human RIPK1 = human RIPK1 (Homo sapiens (Human), UniProt Q13546); assay: KINOMEscan binding assay, human RIPK1; details: Table 21
Chain of human RIPK1 (Q13546 whole entry): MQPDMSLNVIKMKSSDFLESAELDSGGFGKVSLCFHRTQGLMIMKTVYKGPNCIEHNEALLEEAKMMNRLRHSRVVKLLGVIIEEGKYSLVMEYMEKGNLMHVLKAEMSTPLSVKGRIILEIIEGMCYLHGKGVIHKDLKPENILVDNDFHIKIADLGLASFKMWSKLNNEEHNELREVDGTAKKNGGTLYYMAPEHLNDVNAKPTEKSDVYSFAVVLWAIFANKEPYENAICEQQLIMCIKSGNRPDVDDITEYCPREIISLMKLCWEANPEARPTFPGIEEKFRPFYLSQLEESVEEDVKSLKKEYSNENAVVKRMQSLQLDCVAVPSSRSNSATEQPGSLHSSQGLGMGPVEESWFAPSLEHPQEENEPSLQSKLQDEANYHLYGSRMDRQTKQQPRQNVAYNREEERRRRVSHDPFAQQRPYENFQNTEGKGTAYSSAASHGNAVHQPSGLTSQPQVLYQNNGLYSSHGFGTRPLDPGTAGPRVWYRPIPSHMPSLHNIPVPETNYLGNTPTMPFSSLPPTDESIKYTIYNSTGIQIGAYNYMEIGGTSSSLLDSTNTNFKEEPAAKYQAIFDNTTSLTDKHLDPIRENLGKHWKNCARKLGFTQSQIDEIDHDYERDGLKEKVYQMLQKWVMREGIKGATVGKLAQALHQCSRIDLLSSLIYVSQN
Procedure, shortened: as §4

[1] = system: U937 human histiocytic leukemia cell line; assay: Cellular assay: inhibition of TSQ induced necroptosis, CellTitre-Glo viability; details: U937 cells, 48 hours, TSQ cocktail, read-out: Inhibition of TSQ-induced necroptosis (IC50 cell-based assay)
Experimental: Cellular Assay: Screening Compounds for Inhibition of TSQ Induced Necroptosis, 384 Well Plate Format.
as §1, §2
Percent viability was calculated for each compound according to equation (2):
as §3

[2] = system: Immortalised Mouse Dermal Fibroblasts (MDFs); assay: Cellular assay: inhibition of TSI induced necroptosis, CellTitre-Glo viability; details: Mus musculus, Fibroblast, MDF, 3 hours TSI cocktail, read-out: Inhibition of TSI-induced necroptosis (IC50 cell-based assay) in MDF
Procedure, shortened: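 Necroptosis induced for 3 h with TSI: rhTNF 100 ng/ml, Smac mimetic 500 nM, caspase inhibitor IDN-6556 10 μM. Mouse dermal fibroblasts had received compound (36 μM top, ten three-fold steps) 30 min beforehand. ATP-based viability scaled between untreated and TSI-only wells; IC50 taken as 4-parameter curve inflection.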

human MLKL (full length) = human MLKL (full length) (Homo sapiens (Human), UniProt Q8NB16); assay: KINOMEscan binding assay, human MLKL (full length)
Chain of human MLKL (full length) (Q8NB16 whole entry): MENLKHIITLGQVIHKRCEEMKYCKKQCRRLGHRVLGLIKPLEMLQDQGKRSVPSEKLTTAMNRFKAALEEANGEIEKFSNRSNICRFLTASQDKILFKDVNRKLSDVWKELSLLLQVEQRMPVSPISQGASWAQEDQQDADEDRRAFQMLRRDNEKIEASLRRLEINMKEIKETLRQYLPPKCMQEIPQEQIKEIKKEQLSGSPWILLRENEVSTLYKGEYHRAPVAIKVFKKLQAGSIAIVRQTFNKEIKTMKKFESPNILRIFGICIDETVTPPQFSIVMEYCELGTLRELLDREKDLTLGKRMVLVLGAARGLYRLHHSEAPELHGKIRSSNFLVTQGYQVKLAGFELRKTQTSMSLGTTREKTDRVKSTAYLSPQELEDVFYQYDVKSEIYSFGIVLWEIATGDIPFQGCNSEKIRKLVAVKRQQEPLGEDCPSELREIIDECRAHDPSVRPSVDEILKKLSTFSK
Procedure, shortened: as §4

endogenous MLKL in U937 = endogenous MLKL in U937 (Homo sapiens (Human), UniProt Q8NB16); assay: Degradation assay: endogenous MLKL in U937 (western blot); details: U937, 24 h incubation, read-out: Degradation of endogenous MLKL in U937 (DC50 cell-based assay)
Chain of endogenous MLKL in U937 (Q8NB16 whole entry): as above
Procedure, shortened: (§5)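 Western blot band intensity of MLKL, adjusted to GAPDH loading and normalized to DMSO-only wells, gave percent degradation. Compound exposure lasted 24 h at final concentrations of 10–0.016 μM in 1:5 steps, in mouse dermal fibroblasts or human U937 cells.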

endogenous MLKL in MDF = endogenous MLKL in MDF (Mus musculus (Mouse), UniProt Q9D2Y4); assay: Degradation assay: endogenous MLKL in MDF (western blot); details: MDF cells, 24 h incubation with compound, MLKL adjusted for loading with GAPDH, normalized to DMSO only control, read-out: Degradation of endogenous MLKL in MDF (DC50 cell-based assay)
Chain of endogenous MLKL in MDF (Q9D2Y4 whole entry): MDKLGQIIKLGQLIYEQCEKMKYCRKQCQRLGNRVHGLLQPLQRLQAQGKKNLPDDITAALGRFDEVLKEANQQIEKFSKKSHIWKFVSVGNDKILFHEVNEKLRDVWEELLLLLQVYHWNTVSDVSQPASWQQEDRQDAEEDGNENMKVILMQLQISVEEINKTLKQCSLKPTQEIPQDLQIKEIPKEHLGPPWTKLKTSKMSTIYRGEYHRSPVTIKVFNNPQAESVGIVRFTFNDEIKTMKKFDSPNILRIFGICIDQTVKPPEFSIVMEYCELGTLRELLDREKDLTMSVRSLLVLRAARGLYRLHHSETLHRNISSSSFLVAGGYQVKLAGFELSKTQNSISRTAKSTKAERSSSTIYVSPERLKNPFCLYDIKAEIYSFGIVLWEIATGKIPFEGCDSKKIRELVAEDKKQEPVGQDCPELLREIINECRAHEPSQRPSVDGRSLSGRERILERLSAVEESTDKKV
Procedure, shortened: as §5

[3] = Homo sapiens, U-937, Table 23, read-out: Off-target effect (IC50 cell-based assay)
[4] = KINOMEscan, Table 21, read-out: Human MLKL (full-length) (KD)
[5] = Table 23, read-out: Off-target effect (IC50 cell-based assay)
[6] = Homo sapiens, U-937, Table 26, read-out: Off-target effect (IC50 cell-based assay)

| Compound | pIC50 (U937 cells; [3]) | pKd (human RIPK3) | pKd (human RIPK1) | pIC50 ([1]; Homo sapiens, U-937, Table 23) | pKd (human MLKL (full length); [4]) | pIC50 (U937 cells; [6]) | pIC50 ([1]; Homo sapiens, U-937, Table 26) | other results |
| --- | --- | --- | --- | --- | --- | --- | --- | --- |
| C[C@H](Oc1cc(-c2nn(C)c3c(-c4cnn([C@@H]5CCN(C)C(C)(C)C5)c4)cnc(N)c23)ccc1NS(=O)(=O)C(F)F)c1ccc(F)cc1 (single isomer, unassigned) [Compound 154, N-(4-(4-amino-1-methyl-7-(1-((R*)-1,2,2-trimethylpiperidin-4-yl)-1H-pyrazol-4-yl)-1H-pyrazolo[4,3-c]pyridin-3-yl)-2-((S)-1-(4-fluorophenyl)ethoxy)phenyl)-1,1-difluoromethanesulfonamide] | < 5.00 | < 5.00 | < 5.00 | > 8.00 | – | – | – | – |
| C[C@H](Oc1cc(-c2nn(C)c3c(-c4cnn(C5CCN(C)C(C)(C)C5)c4)cnc(N)c23)ccc1NS(=O)(=O)C(F)F)c1ccc(F)cc1 (single isomer, unassigned) [Compound 155, N-(4-(4-amino-1-methyl-7-(1-((S*)-1,2,2-trimethylpiperidin-4-yl)-1H-pyrazol-4-yl)-1H-pyrazolo[4,3-c]pyridin-3-yl)-2-((S)-1-(4-fluorophenyl)ethoxy)phenyl)-1,1-difluoromethanesulfonamide] | < 5.00 | – | – | > 8.00 | – | – | – | pIC50 ([2]; Table 24): > 6.00 |
| CCS(=O)(=O)Nc1ccc(-c2nn(C)c3c(-c4ccncc4)cnc(N)c23)cc1OCc1ccc(F)cc1 [Compound 1, N-(4-(4-amino-1-methyl-7-(pyridin-4-yl)-1H-pyrazolo[4,3-c]pyridin-3-yl)-2-((4-fluorobenzyl)oxy)phe-nyl)ethanesulfonamide] | < 5.00 | < 5.00 | < 5.00 | 5.00 to 6.00 | 7.00 to 9.00 | – | – | – |
| C[C@H](Oc1cc(-c2nn(C)c3c(-c4ccc(N5CCNCC5)nc4)cnc(N)c23)ccc1NS(=O)(=O)C(F)F)c1ccc(F)cc1 [Compound 108] | – | < 5.00 | < 5.00 | – | > 9.00 | – | – | pIC50 (U937 cells; [5]): < 5.00; pIC50 ([1]; Table 23): 6.00 to 8.00 |
| CNc1ncc(-n2cc(-c3cnc(N)c4c(-c5ccc(NS(=O)(=O)C(F)F)c(O[C@@H](C)c6ccc(F)cc6)c5)nn(C)c34)cn2)cn1 [Compound 138, (S)-N-(4-(4-amino-1-methyl-7-(1-(2-(methylamino)pyrimidin-5-yl)-1H-pyrazol-4-yl)-1H-pyrazolo[4,3-c]pyridin-3-yl)-2-(1-(4-fluorophenyl)ethoxy)phenyl)-1,1-difluoromethanesulfonamide] | – | < 5.00 | < 5.00 | – | 7.00 to 9.00 | – | – | pIC50 (U937 cells; [5]): < 5.00; pIC50 ([1]; Table 23): 6.00 to 8.00 |
| Cc1ncsc1-c1ccc(CNC(=O)[C@@H]2C[C@@H](O)CN2C(=O)[C@@H](NC(=O)CN2CCC(n3cc(-c4cnc(N)c5c(-c6ccc(NS(=O)(=O)C(F)F)c(O[C@@H](C)c7ccc(F)cc7)c6)nn(C)c45)cn3)C2)C(C)(C)C)cc1 (stereo partly drawn) [Compound 1011, (2S,4R)-1-[(2S)-2-{2-[3-(4-{4-amino-3-[4-(difluoromethanesulfonamido)-3-[(1S)-1-(4-fluorophenyl)ethoxy]phenyl]-1-methyl-1H-pyrazolo[4,3-c]pyridin-7-yl}-1H-pyrazol-1-yl)pyrrolidin-1-yl]acetamido}-3,3-dimethylbutanoyl]-4-hydroxy-N-{[4-(4-methyl-1,3-thiazol-5-yl)phenyl]methyl}pyrrolidine-2-carboxamide] | – | – | – | – | – | < 5.00 | 5.00 to 6.00 | DC50 (endogenous MLKL in U937): 1 to 10 µM |
| Cc1ncsc1-c1ccc(CNC(=O)[C@@H]2C[C@@H](O)CN2C(=O)[C@@H](NC(=O)CN2CCC(n3cc(-c4cnc(N)c5c(-c6ccc(NS(=O)(=O)C(F)F)c(O[C@@H](C)c7ccc(F)cc7)c6)nn(C)c45)cn3)CC2)C(C)(C)C)cc1 [Compound 1016, (2S,4R)-1-[(2S)-2-{2-[4-(4-{4-amino-3-[4-(difluoromethanesulfonamido)-3-[(1S)-1-(4-fluorophenyl)ethoxy]phenyl]-1-methyl-1H-pyrazolo[4,3-c]pyridin-7-yl}-1H-pyrazol-1-yl)piperidin-1-yl]acetamido}-3,3-dimethylbutanoyl]-4-hydroxy-N-{[4-(4-methyl-1,3-thiazol-5-yl)phenyl]methyl}pyrrolidine-2-carboxamide] | – | – | – | – | – | < 5.00 | > 6.00 | pIC50 ([2]; Table 27): > 6.00 |
| Cc1ncsc1-c1ccc(CNC(=O)[C@@H]2C[C@@H](O)CN2C(=O)[C@@H](NC(=O)CN2CCC(C#Cc3cnc(N)c4c(-c5ccc(NS(=O)(=O)C(F)F)c(O[C@@H](C)c6ccc(F)cc6)c5)nn(C)c34)CC2)C(C)(C)C)cc1 [Compound 1023, (2S,4R)-1-[(2S)-2-{2-[4-(2-{4-amino-3-[4-(difluoromethanesulfonamido)-3-[(1S)-1-(4-fluorophenyl)ethoxy]phenyl]-1-methyl-1H-pyrazolo[4,3-c]pyridin-7-yl}ethynyl)piperidin-1-yl]acetamido}-3,3-dimethylbutanoyl]-4-hydroxy-N-{[4-(4-methyl-1,3-thiazol-5-yl)phenyl]methyl} pyrrolidine-2-carboxamide] | – | – | – | – | – | < 5.00 | > 6.00 | DC50 (endogenous MLKL in MDF): 1 to 10 µM |
| Cc1ncsc1-c1ccc(CNC(=O)[C@@H]2C[C@@H](O)CN2C(=O)[C@H](NC(=O)C2(F)CC2)C(C)(C)C)c(OCCCCCCCn2cc(-c3cnc(N)c4c(-c5ccc(NS(=O)(=O)C(F)F)c(O[C@@H](C)c6ccc(F)cc6)c5)nn(C)c34)cn2)c1 [Compound 1030, (2S,4R)—N-[(2-{[7-(4-{4-amino-3-[4-(difluoromethanesulfonamido)-3-[(1S)-1-(4-fluorophenyl)ethoxy]phenyl]-1-methyl-1H-pyrazolo[4,3-c]pyridin-7-yl}-1H-pyrazol-1-yl)heptyl]oxy}-4-(4-methyl-1,3-thiazol-5-yl)phenyl)methyl]-1-[(2R)-2-[(1-fluorocyclopropyl)formamido]-3,3-dimethylbutanoyl]-4-hydroxypyrrolidine-2-carboxamide] | – | – | – | – | – | < 5.00 | > 6.00 | pKd (human MLKL (full length); hMLKL, Table 25, read-out: MLKL (KD)): 6.00 to 8.00 |

From patent US20250115598A1 (Anaxis Pharma Pty Ltd, priority 2021, published 2025)
